Assay results taken from ChEMBL document CHEMBL3045068, “Effect of methomyl and oxamyl soil applications on early control of nematodes and insects” (Pest Manag Sci, 2011).
≈ marks a conversion by molar mass, not a printed value.

Tests used:
Phaseolus lunatus [1] = assay: Phytotoxicity in Phaseolus lunatus (lima bean) root assessed as root dry weight at 2.24 kg ai/ha applied to soil measured up to 7 days under green house conditions (reference value: 0.36 +/- 0.071 g); type: organism-based; settings: in vivo, other, 168 h
Phaseolus lunatus [2] = assay: Phytotoxicity in Phaseolus lunatus (lima bean) root assessed as root dry weight at 1.12 kg ai/ha applied to soil measured up to 7 days under green house conditions (reference value: 0.36 +/- 0.071 g); type: organism-based; settings: in vivo, other, 168 h
Phaseolus lunatus [3] = assay: Phytotoxicity in Phaseolus lunatus (lima bean) plant assessed as plant dry weight at 2.24 kg ai/ha applied to soil measured up to 7 days under green house conditions (reference value: 1.20 +/- 0.21 g); type: organism-based; settings: in vivo, other, 168 h
Meloidogyne incognita [4] = assay: Nematicidal activity against second juvenile stage of Meloidogyne incognita (root-knot nematode) infected lima bean plant assessed as reduction in root gall index at 1.12 kg ai/ha applied to soil measured during planting under green house conditions (reference value: 7 +/- 0.27%); type: functional
Meloidogyne incognita [5] = assay: Nematicidal activity against second juvenile stage of Meloidogyne incognita (root-knot nematode) infected lima bean plant assessed as reduction in root gall index at 0.56 kg ai/ha applied to soil measured during planting under green house conditions (reference value: 7 +/- 0.27%); type: functional
Meloidogyne incognita [6] = assay: Nematicidal activity against second juvenile stage of Meloidogyne incognita (root-knot nematode) infected lima bean plant assessed as shoot dry weight at 1.12 kg ai/ha applied to soil measured during planting under green house conditions (reference value: 1.84 +/- 0.18 g); type: functional
Meloidogyne incognita [7] = assay: Nematicidal activity against second juvenile stage of Meloidogyne incognita (root-knot nematode) infected lima bean plant assessed as shoot dry weight at 0.56 kg ai/ha applied to soil measured during planting under green house conditions (reference value: 1.84 +/- 0.18 g); type: functional
Meloidogyne incognita [8] = assay: Nematicidal activity against second juvenile stage of Meloidogyne incognita (root-knot nematode) infected pea plant assessed as plant fresh weight at 1.68 kg ai/ha applied to soil measured up to 7 days post planting under green house conditions (reference value: 4.3 +/- 0.56 g); type: functional
Meloidogyne incognita [9] = assay: Nematicidal activity against second juvenile stage of Meloidogyne incognita (root-knot nematode) infected pea plant assessed as plant fresh weight at 1.12 kg ai/ha applied to soil measured up to 7 days post planting under green house conditions (reference value: 4.3 +/- 0.56 g); type: functional
Meloidogyne incognita [10] = assay: Nematicidal activity against second juvenile stage of Meloidogyne incognita (root-knot nematode) infected pea plant assessed as plant fresh weight at 0.56 kg ai/ha applied to soil under green house conditions (reference value: 4.3 +/- 0.56 g); type: functional
Meloidogyne incognita [11] = assay: Nematicidal activity against second juvenile stage of Meloidogyne incognita (root-knot nematode) infected pea plant assessed as reduction in root gall index at 1.68 kg ai/ha applied to soil measured up to 14 days post planting under green house conditions (reference value: 9.7 +/- 0.30%); type: functional
Meloidogyne incognita [12] = assay: Nematicidal activity against second juvenile stage of Meloidogyne incognita (root-knot nematode) infected pea plant assessed as reduction in root gall index at 1.12 kg ai/ha applied to soil measured up to 7 days post planting under green house conditions (reference value: 9.7 +/- 0.30%); type: functional
Meloidogyne incognita [13] = assay: Nematicidal activity against second juvenile stage of Meloidogyne incognita (root-knot nematode) infected pea plant assessed as reduction in root gall index at 0.56 kg ai/ha applied to soil under green house conditions (reference value: 9.7 +/- 0.30%); type: functional
Meloidogyne incognita [14] = assay: Nematicidal activity against second juvenile stage of Meloidogyne incognita (root-knot nematode) infected pea plant assessed as root dry weight at 1.12 kg ai/ha applied to soil measured up to 7 days post planting under green house conditions (reference value: 0.25 +/- 0.041 g); type: functional
Meloidogyne incognita [15] = assay: Nematicidal activity against second juvenile stage of Meloidogyne incognita (root-knot nematode) infected pea plant assessed as root dry weight at 0.56 kg ai/ha applied to soil under green house conditions (reference value: 0.25 +/- 0.041 g); type: functional
Meloidogyne incognita [16] = assay: Nematicidal activity against second juvenile stage of Meloidogyne incognita (root-knot nematode) infected pea plant assessed as root fresh weight at 1.68 kg ai/ha applied to soil measured up to 14 days post planting under green house conditions (reference value: 1.83 +/- 0.3 g); type: functional
Meloidogyne incognita [17] = assay: Nematicidal activity against second juvenile stage of Meloidogyne incognita (root-knot nematode) infected pea plant assessed as root fresh weight at 1.12 kg ai/ha applied to soil measured up to 7 days post planting under green house conditions (reference value: 1.83 +/- 0.3 g); type: functional
Meloidogyne incognita [18] = assay: Nematicidal activity against second juvenile stage of Meloidogyne incognita (root-knot nematode) infected pea plant assessed as emergence at 0.56 kg ai/ha applied to soil under green house conditions (reference value: 75 +/- 13%); type: functional
Meloidogyne incognita [19] = assay: Nematicidal activity against second juvenile stage of Meloidogyne incognita (root-knot nematode) infested soil containing cucumber seeds assessed as mortality applied post seed germination measured after 7 days under green house conditions; type: functional
Meloidogyne incognita [20] = assay: Nematicidal activity against second juvenile stage of Meloidogyne incognita (root-knot nematode) assessed as mortality after 72 hr; type: functional
Meloidogyne incognita [21] = assay: Nematicidal activity against second juvenile stage of Meloidogyne incognita (root-knot nematode) assessed as mortality after 48 hr; type: functional
Meloidogyne incognita [22] = assay: Nematicidal activity against second juvenile stage of Meloidogyne incognita (root-knot nematode) infected pea plant assessed as emergence at 1.68 kg ai/ha applied to soil measured up to 14 days under green house conditions (reference value: 75 +/- 13%); type: functional
Meloidogyne incognita [23] = assay: Nematicidal activity against second juvenile stage of Meloidogyne incognita (root-knot nematode) infected pea plant assessed as emergence at 1.12 kg ai/ha applied to soil measured up to 7 days under green house conditions (reference value: 75 +/- 13%); type: functional
Meloidogyne incognita [24] = assay: Nematicidal activity against second juvenile stage of Meloidogyne incognita (root-knot nematode) infected pea plant assessed as root fresh weight at 0.56 kg ai/ha applied to soil under green house conditions (reference value: 1.83 +/- 0.3 g); type: functional
Phaseolus lunatus [25] = assay: Phytotoxicity in Phaseolus lunatus (lima bean) plant assessed as plant dry weight at 1.12 kg ai/ha applied to soil measured up to 7 days under green house conditions (reference value: 1.20 +/- 0.21 g); type: organism-based; settings: in vivo, other, 168 h
Phaseolus lunatus [26] = assay: Phytotoxicity in Phaseolus lunatus (lima bean) plant assessed as emergence at 2.24 kg ai/ha applied to soil measured up to 7 days under green house conditions (reference value: 70 +/- 16%); type: organism-based; settings: in vivo, other, 168 h
Phaseolus lunatus [27] = assay: Phytotoxicity in Phaseolus lunatus (lima bean) plant assessed as emergence at 1.12 kg ai/ha applied to soil measured up to 7 days under green house conditions (reference value: 70 +/- 16%); type: organism-based; settings: in vivo, other, 168 h
Meloidogyne incognita [28] = assay: Nematicidal activity against second juvenile stage of Meloidogyne incognita (root-knot nematode) infected lima bean plant assessed as root dry weight at 1.12 kg ai/ha applied to soil measured during planting under green house conditions (reference value: 0.5 +/- 0.052 g); type: functional
Meloidogyne incognita [29] = assay: Nematicidal activity against second juvenile stage of Meloidogyne incognita (root-knot nematode) infected lima bean plant assessed as root dry weight at 0.56 kg ai/ha applied to soil measured during planting under green house conditions (reference value: 0.5 +/- 0.052 g); type: functional
Meloidogyne incognita [30] = assay: Nematicidal activity against second juvenile stage of Meloidogyne incognita (root-knot nematode) infected lima bean plant assessed as emergence at 1.12 kg ai/ha applied to soil measured during planting under green house conditions (reference value: 83 +/- 5%); type: functional
Meloidogyne incognita [31] = assay: Nematicidal activity against second juvenile stage of Meloidogyne incognita (root-knot nematode) infected lima bean plant assessed as emergence at 0.56 kg ai/ha applied to soil measured during planting under green house conditions (reference value: 83 +/- 5%); type: functional
Meloidogyne incognita [32] = assay: Nematicidal activity against second juvenile stage of Meloidogyne incognita (root-knot nematode) infected pea plant assessed as root dry weight at 1.68 kg ai/ha applied to soil measured up to 14 days post planting under green house conditions (reference value: 0.25 +/- 0.041 g); type: functional

Work on `CNC(=O)O/N=C(\SC)C(=O)N(C)C` [OXAMYL] yielded an Activity (Phaseolus lunatus [1]) of 0.6 g, an Activity (Phaseolus lunatus [2]) of 0.35 g and an Activity (Phaseolus lunatus [3]) of 1.79 g. For the same compound, the Root_galling_index (Meloidogyne incognita [4]) was 0%, the Root_galling_index (Meloidogyne incognita [5]) was 0% and the Activity (Meloidogyne incognita [6]) was 1.49 g. The Activity (Meloidogyne incognita [7]) was 1.09 g, the Activity (Meloidogyne incognita [8]) was 7.1 g and the Activity (Meloidogyne incognita [9]) was 6 g. For the same compound, the Activity (Meloidogyne incognita [10]) was 4.4 g, the Root_galling_index (Meloidogyne incognita [11]) was 0% and the Root_galling_index (Meloidogyne incognita [12]) was 0%. It also gave a Root_galling_index (Meloidogyne incognita [13]) of 0%, an Activity (Meloidogyne incognita [14]) of 0.31 g and an Activity (Meloidogyne incognita [15]) of 0.17 g. It also gave an Activity (Meloidogyne incognita [16]) of 1.76 g, an Activity (Meloidogyne incognita [17]) of 1.61 g and an Activity (Meloidogyne incognita [18]) of 63%. It also gave an LC90 (Meloidogyne incognita [19]) of 12 µg/mL (≈ 54.7 µM), an LC50 (Meloidogyne incognita [19]; Meloidogyne incognita, Juvenile stage, 168 h) of 2.8 µg/mL (≈ 12.8 µM) and an LC90 (Meloidogyne incognita [20]) of 2.5 µg/mL (≈ 11.4 µM). The LC50 (Meloidogyne incognita [20]; Meloidogyne incognita, Juvenile stage, 72 h) was 1.7 µg/mL (≈ 7.75 µM), the LC90 (Meloidogyne incognita [21]) was 11.5 µg/mL (≈ 52.4 µM) and the LC50 (Meloidogyne incognita [21]; Meloidogyne incognita, Juvenile stage, 48 h) was 4 µg/mL (≈ 18.2 µM). It also gave an Activity (Meloidogyne incognita [22]) of 75%, an Activity (Meloidogyne incognita [23]) of 63% and an Activity (Meloidogyne incognita [24]) of 1.36 g. The Activity (Phaseolus lunatus [25]) was 1.48 g, the Activity (Phaseolus lunatus [26]) was 70% and the Activity (Phaseolus lunatus [27]) was 80%. It also gave an Activity (Meloidogyne incognita [28]) of 0.41 g, an Activity (Meloidogyne incognita [29]) of 0.31 g and an Activity (Meloidogyne incognita [30]) of 100%. The Activity (Meloidogyne incognita [31]) was 83% and the Activity (Meloidogyne incognita [32]) was 0.29 g.
